One assay deals with MPS1. On the set-up: method as in PMID 23940287. The following applies: reported; cited from earlier work.
Assay [1] concerns orthotopic E98 GBM tumors. Kind of assay: Orthotopic E98 GBM xenograft efficacy in Abcb1a/b;Abcg2-/- mice. The following applies: TMZ + RT given at tumor size 10^7-10^8 p/s. The assay is classed as in vivo. Here is the method:
Orthotopic GBM tumors were induced in Abcb1a/b; Abcg2^−/− mice by stereotactic injection of E98 cells expressing firefly luciferase (200,000 cells in 2 µL HBSS (Life Technologies) at an injection speed of 1 µL/min) at 2 mm lateral, 1 mm anterior and 3 mm ventral to the bregma. Tumor growth was monitored using bioluminescence imaging by injecting D-luciferin (150 mg/kg i.p.; Promega, Madison, WI) and subsequently imaging mice on an IVIS Spectrum Imaging System (PerkinElmer, Waltham, MA). Survival was monitored daily and the humane endpoint was defined as body weight loss exceeding 20%. Time-to-recurrence was defined as the number of days elapsed until the tumor regained its pre-treatment size. Tumors were treated with CT-guided radiotherapy (2–3.5 Gy per fraction) using an X-RAD 225Cx system (Precision X-Ray, North Branford, CT), temozolomide (10 mg/kg p.o. freshly prepared from powder in an aqueous solution containing 10% v/v ethanol), NTRC0066-0 (20, 10 or 5 mg/kg p.o. in an aqueous solution containing 10% v/v DMSO and 10% v/v Cremophor EL (Life Technologies)) or different combinations thereof, as described per experiment in the Figure legends.

The values that follow come from article PMC12909347, “Disconnect between in vitro and in vivo efficacy of the MPS1 inhibitor NTRC 0066-0 against glioblastoma” (Cellular Oncology, 2026).

For the molecule `COc1cc(N2CCC(O)CC2)ccc1Nc1nc(Nc2ccccc2S(=O)(=O)C(C)C)c2[nH]cnc2n1` [MPS1-IN-3], the “IC50s (intrinsic potency)” value with MPS1 is given as “micromolar range”. Consider `Cn1nnc2c(C(N)=O)ncn2c1=O` [TMZ, temozolomide, reference compound], for which, in assay [1], the “Tumor bioluminescence signal after regression” value is on record as “about 10^5 p/s”.
